How the values were obtained:
[1] = system: Alzheimer's disease; conditions: cited from earlier work
[2] = system: human dopaminergic neurons (iCell DopaNeurons); assay: MPP+-induced neurotoxicity: cytolysis of iCell DopaNeurons; assay type: cell-based; conditions: with MPP+ 100 μM
Description: Three different measurements were made in the experiments. Neurite length in mm was measured, which is a measure of increase in dendril length of neurons. […] Secondly, neurite branching was measured. […] Thirdly, cytolysis of the cells was measured. […] Experimental conditions were measured relative to the results of healthy cells in the studies.
(§1) Procedure. iCell DOPA neurons were thawed and cultured following the provider's instructions in Brainphys medium+provided supplements+1% N2 supplement (Stemcell Technologies)+penicillin/streptomycin+Laminin. They were plated at 20000 cells per well of a 384 well plate (pre-coated with poly-D-lysine and Laminin) in 70 μL of growth medium. Cells were incubated at 37° ° C./5% CO2 in a humidified cell culture incubator. Half of the culture medium was changed twice a week.
(§2) MPP+-induced neurotoxicity: 24 hours after neuronal plating, half of the medium was removed and the test compounds were applied with MPP+ treatment, both concentrated at 4×, were added to the wells. For each well, five aliquots were added, corresponding columns A-E in Table 3. In each row, either the compound indicated dissolved in its vehicle noted in Table 2 was added, or only a vehicle was added as indicated. Column E is an indicator of whether MPP+ was added. If not, only the medium was added.
(§3) For the evaluation of conditions 8, 10,12, 22, 24, Neurite outgrowth was followed for subsequent 48 hours using an Incucyte Zoom platform with one phase contrast image every 4 hours, using a 20× objective. After 48 hours, the medium containing test compounds and MPP+ was removed and replaced by fresh medium containing a fluorescent cytolysis marker (red fluorescence) and a live cell marker (green fluorescence). For the evaluation of conditions 10, 12, 24, 38, 40, 51-53, Neurite outgrowth was followed similarly for subsequent 72 hours after MPP+ was added.
Data was normalized to control conditions as there is basal cytolysis in the cell culture after thawing.

[3] = system: human dopaminergic neurons (iCell DopaNeurons); assay: MPP+-induced neurotoxicity: neurite outgrowth (neurite length, branch points) on iCell DopaNeurons; assay type: cell-based; conditions: for Neurite length, Mean: Table 7.1, plate 1
Source text: MPP+(1-methyl-4-phenylpyridinium) is a known neurotoxin which acts by interfering with oxidative phosphorylation in mitochondria by inhibiting complex I, a protein in the membrane of mitochondria in dopaminergic neurons in the substantia nigra.(94) The inhibition of mitochondrial function leads to the depletion of ATP and eventual cell death. MPP+ ultimately causes Parkinsonism in primates by killing certain dopamine-producing neurons in the substantia nigra.
iCell DOPA neurons are neural floor plate-derived midbrain dopaminergic neurons generated from human induced pluripotent stem cells (iPSCs). Dopaminergic neurons, specifically those located in the floor plate-derived midbrain are implicated in neurological disorders such as Parkinson's disease, MSA and DLBD among others. […] The iCellDopa neurons were supplied from FUJIFILM Cellular Dynamics.
as §1, §2, §3
Assay endpoints and data analysis. Phase contrast images were analyzed at each time point to determine the neurite length and number of branch points per mm^2. Kinetic data was plotted and kinetics were normalized by subtracting the value of the first data point (at time of treatment), allowing to measure changes in neurite outgrowth only from the onset of the treatment, starting at zero. Area Under Curve (AUC) of kinetic data was obtained and used for plotting compound's effects and perform statistical analyzes.

[4] = system: CXCL1/GROα mediated neuroinflammation in microglial cells; assay: LPS/ATP-induced neuroinflammation in microglia: CXCL1/GROα secretion (Luminex); assay type: cell-based, human; conditions: for CXCL1/GROα in supernatant, Mean ± S.D. / CXCL1/GROα in supernatant, Replicate 1 / CXCL1/GROα in supernatant, Replicate 2 / CXCL1/GROα in supernatant, Replicate 3: LPS (100 ng/mL) + ATP (5 mM), six hours after LPS
Source text: (§4) In addition to the studies discussed above assessing activity of combinations of drugs on MPP+-induced neurodegeneration toxicity on human dopaminergic neurons as well as on a human iPSC cell line harboring a triplication mutation in alpha-synuclein gene, and measuring neuronal growth, neurite branching and neurofilament heavy chain, we also assessed combinations of drugs in reducing lipopolysaccharide (LPS, from E. coli)-induced neuroinflammation in human microglia cells.
(§5) Lipopolysaccharides are important outer membrane components of gram-negative bacteria such as E. coli and Salmonella. They are large amphipathic glycoconjugates that typically consist of a lipid domain (hydrophobic) attached to a core oligosaccharide and a distal polysaccharide. LPS binds to Toll-like receptor 4 (TLR4) and activates microglia(98) which in turn increases secretion of pro-inflammatory cytokines such as interleukin-6 (IL-6), tumor necrosis factor-α (TNF-α), and CXCL1/GROα.
(§6) Microglia cells were obtained from an iCell® Microglia kit, 01279 (Catalogue N^o R1131) from FUJIFILM Cellular Dynamics. We followed the manufacturer's protocol for activation of the microglial cells with LPS/ATP to subsequently measure the effect of the study drugs on pro-inflammatory cytokines IL-6, TNF-α and CXCL1/GROα.
(§7) All cell culture procedures were performed in aseptic conditions, under a laminar flow hood. Microglia were thawed and cultured following the provider's instructions. The microglia were plated at 50,000 cells per well of a Corning Primaria 96 well plate (Ref N^o 353872) in 100 μL of growth medium. Cells were incubated at 37° C./5% CO2 in a humidified cell culture incubator.
(§8) Three days after cell plating, the test or reference substances (25 μL of solutions at 5×) were applied 1 hour before LPS and ATP stimulation.
(§9) One hour later, 12.5 μL of test or reference substances were added again at 2× concentrated followed by 12.5 μL of LPS at 12× concentration. Fifty microliters of ATP were introduced at 4× concentration, 5 h 30 min after incubation with LPS.
(§10) Six hours after LPS incubation, the supernatant of each well was collected and centrifugated at 1000 g for 10 minutes to remove the cells and debris.
(§11) Fifty microliters of supernatant from NT and LPS+ATP-treated wells were used to determine cytokine secretion (IL-6, TNF-α, CXCL1/GROα) by Luminex platform according to the provider's instructions. Samples were diluted prior to the assay to fit within the standard range if needed. Three wells were tested per each condition (Table 11). Cytokines levels in the supernatant were expressed in pg/mL. The data was analyzed using a One-Way ANOVA followed by Bonferroni test.

[5] = system: G93A transgenic ALS mice; conditions: mouse, in vivo; cited from earlier work
[6] = system: IL-6 mediated inflammation in microglial cells; assay: LPS/ATP-induced neuroinflammation in microglia: IL-6 secretion (Luminex); assay type: cell-based, human; conditions: for IL-6 in supernatant, Mean ± S.D. / IL-6 in supernatant, Replicate 1 / IL-6 in supernatant, Replicate 2 / IL-6 in supernatant, Replicate 3: LPS (100 ng/mL) + ATP (5 mM), six hours after LPS
Source text: as §4, §5, §6, §7, §8, §9, §10, §11

[7] = system: TNF-α mediated neuroinflammation in microglial cells; assay: LPS/ATP-induced neuroinflammation in microglia: TNF-α secretion (Luminex); assay type: cell-based, human; conditions: for TNF-α in supernatant, Mean ± S.D. / TNF-α in supernatant, Replicate 1 / TNF-α in supernatant, Replicate 2 / TNF-α in supernatant, Replicate 3: LPS (100 ng/mL) + ATP (5 mM), six hours after LPS
Source text: as §4, §5, §6, §7, §8, §9, §10, §11

[8] = system: iPSC-derived dopaminergic (DA) neurons harboring triplication of the α-synuclein locus; assay: α-Synuclein triplication cell line: neurofilament heavy chain signal intensity; assay type: cell-based, human; conditions: normalized to Hoechst signal; three months treatment; PBA 500 μM, TUDCA 50 μM, EXD 100 nM
Description: We used 12 replicas for each experimental condition and 16 replicas for control (untreated cells). […] Cells were washed three times with warm phosphate buffered saline (PBS) and imaged immediately at 20× magnification on an imageXpress Micro confocal at 37° C. and 5% CO2.
Following imaging, cells were immediately fixed with 4% paraformaldehyde for 30 minutes at room temperature, washed three times with PBS, permeabilized with 0.2% Triton X-100 for 30 minutes, blocked with Odyssey Blocking Buffer for 60 minutes, and incubated overnight at 4° C. with primary antibodies, neurofilament (1:1000, Synaptic Systems 171 002) and LB509 (1:100, Abcam ab27766). Cells were washed 3× with 0.1% Tween-20 in PBS and incubated with Alexa Fluor Goat Anti-Rabbit 790 (1:1000) and Goat Anti-Mouse 647 (1:1000) for 1 hour at RT, before washing 3× with 0.1% Tween-20 in PBS and imaging with Sapphire Biomolecular Imager. Neurofilament heavy chain signal intensity was normalized to fixed Hoechst signal measured with Spectra Gemini plate reader (ex=350 nm, em=461 nm), using Hoechst 33342 nucleic acid stain from Invitrogen according to the manufacturer's instructions. Neurofilaments (NF) are located mostly in axons and indicate roughly the content of neurites. If neurodegeneration is halted or reversed, NF signal increases because it correlates with the number and/or length of neurites in the well.

[9] = system: HD patients; conditions: up to 15 g/day; cited from earlier work
[10] = system: IL-1B; assay: LPS/ATP-induced neuroinflammation in microglia: IL-1B; assay type: cell-based, human; conditions: compared with […] distilled water in presence of LPS and ATP
[11] = Table 7.2, plate 1, with MPP+ 100 μM, 72 hours
[12] = compared with […] distilled water in presence of LPS and ATP

Row | Structure (SMILES) | Cytolysis, Mean ± S.D. ([2]; Table 9.1, plate 1) [%] | Neurite length, Mean ([3]; with MPP+ 100 μM, 72 hours) [mm/mm^2] | Neurite Branching, Mean ± S.D. [3, 11] [per mm^2] | CXCL1/GROα in supernatant, Mean ± S.D. [4] [pg/mL] | CXCL1/GROα in supernatant, Replicate 1 [4] [pg/mL] | CXCL1/GROα in supernatant, Replicate 2 [4] [pg/mL] | CXCL1/GROα in supernatant, Replicate 3 [4] [pg/mL] | IL-6 in supernatant, Mean ± S.D. [6] [pg/mL] | IL-6 in supernatant, Replicate 1 [6] [pg/mL] | IL-6 in supernatant, Replicate 2 [6] [pg/mL] | IL-6 in supernatant, Replicate 3 [6] [pg/mL] | TNF-α in supernatant, Mean ± S.D. [7] [pg/mL] | TNF-α in supernatant, Replicate 1 [7] [pg/mL] | TNF-α in supernatant, Replicate 2 [7] [pg/mL] | TNF-α in supernatant, Replicate 3 [7] [pg/mL] | Effect on IL-1B concentration (in words) [10] | Effect on IL-6 concentration (in words) [6, 12] | Effect on TNF-α concentration (in words) [7, 12] | also measured
1 | Cc1cn(-c2cc(NC(=O)c3ccc(C)c(Nc4nccc(-c5cccnc5)n4)c3)cc(C(F)(F)F)c2)cn1 [nilotinib, Nilotinib] | – | – | – | – | – | – | – | – | – | – | – | – | – | – | – | – | – | – | Hippocampal volume loss attenuated ([1]; at 12 months): −27%; Safety ([1]; in vivo): safe
2 | CC(C)[C@H](NC(=O)c1ccc2ccccc2n1)C(=O)N[C@@H](CC(=O)O)C(=O)COc1c(F)cccc1F [PCI/MPP+, Q-VD-OPh] | 65.56 ± 1.89 | 1301.0 | 38456.3 ± 11570.7 | – | – | – | – | – | – | – | – | – | – | – | – | – | – | – | Cytolysis, Mean ± S.D. ([2]; Table 9.2, plate 2): 67.93 ± 3.52%; Neurite length, Mean ± S.D. ([3]; Table 8.1, plate 2, with MPP+ 100 μM, 72 hours): 1430.1 ± 321.7 mm/mm^2; Neurite Branching, Mean ± S.D. ([3]; Table 8.2, plate 2, with MPP+ 100 μM, 72 hours): 52610.1 ± 16660.1 per mm^2
3 | O=C([O-])CCCc1ccccc1.[Na+] [PBA, Sodium 4-phenylbutyrate] | 72.06 ± 1.77 | 1681.1 | 46742.8 ± 7107.5 | 495.79 ± 122.99 | 627.29 | 383.60 | 476.49 | 355.23 ± 45.97 | 396.23 | 363.94 | 305.53 | 33.46 ± 1.75 | 32.67 | 35.47 | 32.24 | – | – | – | Survival [5]: significantly extended survival; Decrease of IL-6 concentration [6, 12]: 49%; Increase of number of branch points compared with MPP+ alone (control/MPP+) ([3]; AUC, MPP+ 100 μM): 89%; Protective effect on neurite length and branching (in words) ([3]; MPP+ 100 μM): much less protective effect than combination 8; Neurite length - Baseline-corrected AUC (0-72 h), Mean ([3]; Table 5.1, plate 1, with MPP+ 100 μM): 853.7 mm/mm^2; Number of branch points per mm^2 - Baseline-corrected AUC (0-72 h), Mean ([3]; Table 5.2, plate 1, with MPP+ 100 μM): 41712.8 per mm^2; Decrease of TNF-α concentration [7, 12]: 44%; Neurofilament Heavy Chain signal intensity, mean [8]: 1.088; Safety and tolerability [9]: safe and well-tolerated
4 | CC(C)(O)c1coc(S(=O)(=O)NC(=O)Nc2c3c(cc4c2CCC4)CCC3)c1 [MCC950] | – | – | – | 469.39 ± 82.91 | 375.70 | 499.15 | 533.31 | 256.48 ± 40.04 | 253.54 | 297.91 | 218.00 | 30.95 ± 2.25 | 29.44 | 29.87 | 33.53 | significantly decreased | significantly decreased | significantly decreased | –
5 | CCOC(=O)C1=CCCC[C@H]1S(=O)(=O)Nc1ccc(F)cc1Cl [TAK-242] | – | – | – | 37.76 ± 6.05 | 35.76 | 32.96 | 44.55 | 10.47 ± 0.00 | <10.47 | <10.47 | <10.47 | 5.63 ± 0.00 | <5.63 | <5.63 | <5.63 | significantly decreased | significantly decreased | significantly decreased | Effect on GROα concentration (in words) [4, 12]: significantly decreased

Source: patent US20240252594A1, “COMBINATION THERAPY FOR NEURODEGENERATIVE DISEASES” (ALETA NEUROSCIENCE, LLC, priority 2021, published 2024)
